The nature of this series: Olopatadine-PDE4 Inhibitor Solubility Study. It is filed as physicochemical. Particulars: for effect on the aqueous solubility of olopatadine: 0.1-1% PDE4 inhibitor, FIGS. 1 and 2; for ratio of solubility enhancement: molecules of Compound per olopatadine molecule, straight line fit. The procedure: The following experiments were conducted to determine the effect of compounds of Formula I on the aqueous solubility of olopatadine.
Formulations with the compositions shown in Table 1 were prepared for olopatadine solubility testing as follows: ten milliliter samples of the formulations containing either 0%, 0.1%, 0.3%, or 1% of either Compound 1 (4-(3,5-Dichloropyridin-4-ylamino)-7-methoxy-8-(6-(4-methylpiperazin-1-yl)hexyloxy)quinolin-2(1H)-one) or Compound 2 (4-(3,5-Dichloropyridin-4-ylamino)-7-methoxy-8-(6-morpholinohexyloxy)quinolin-2(1H)-one) with at least 1% Olopatadine Hydrochloride as shown in Table 2 were prepared and adjusted to the target pH. […] The samples were mixed on a rocker and the pH was readjusted to the target pH after one and six days of mixing. On day seven, the samples were filtered through an Acrodisc 25 mm GXF/GHP 0.2 micron filter. The first three milliliters of filtrate were collected for final pH measurement and the next 3 milliliters of filtrate were filled into two 1.5 mL HPLC vials for the olopatadine assay (as free base) as shown below. Compound 1 was not assayed in samples A through H as an assay method was not available. Duplicate Compound 1/Olopatadine samples for the olopatadine assay were injected neat into the HPLC. Compound 2 and olopatadine were assayed in samples I, J, and K. Single Compound 2/Olopatadine samples were diluted 1/10 with 50/50 Acetonitrile/Water and injected into the UPLC.
The final pH of the filtered samples was measured with an Orion 525A+pH meter using a Ross Semimicro combination pH electrode and automatic temperature probe.
The Compound 1 and Olopatadine HPLC assay was conducted using the following conditions: • Instrument: Waters 2695 Separation Module and Waters 2487 • Variable Wavelength Ultraviolet-Visible Detector with Empower Software • Column: Phenomenex Ultracarb C8, 5 micron, 150×4.6 mm • Mobile Phase: • Solvent A=Acetonitrile • Solvent B=100 milliMolar Potassium Phosphate with 0.1% Triethylamine adjusted to pH 3.0 with NaOH/HC1 • Flowrate=1 milliliter/Minute • Gradient:
• Detection: 299 nm Ultraviolet Absorbance • Injection Volume: 20 microliters • Olopatadine Retention Time: About 6.2 minutes
The Compound 2 and Olopatadine UPLC assay was conducted using the following conditions: • Instrument: Waters ACQUITY UPLC System with TUV Detector and Empower Software • Column: Acquity UPLC BEH Shield C18, 1.7 micron, 100×2.1 mm • Mobile Phase: • Solvent A=0.1% Phosphoric Acid adjusted to pH 3.0 with NaOH/HCl • Solvent B=Acetonitrile • Flowrate=0.3 milliliter/Minute • Gradient:
• Detection: 285 nm Ultraviolet Absorbance • Injection Volume: 3 microliters • AL-53817 Retention Time: About 4.1 minutes • Olopatadine Retention Time: About 4.5 minutes
The target pH of samples E through K was 5.2 and the pH readings of the suspensions were close to this value prior to filtration. However, after filtration the solution pH was generally about 0.2 pH units higher than the suspension pH. This pH shift is commonly observed when measuring the pH of a suspension versus a solution. Duplicate samples of A through H were assayed and the duplicate values were averaged.
The milliMolar (mM) concentrations were calculated by dividing the % w/v concentrations by the molecular weight and multiplying by 10000.

`COc1ccc2c(Nc3c(Cl)cncc3Cl)cc(=O)[nH]c2c1OCCCCCCN1CCN(C)CC1` [Compound 1, 4-(3,5-Dichloropyridin-4-ylamino)-7-methoxy-8-(6-(4-methylpiperazin-1-yl)hexyloxy)quinolin-2(1H)-one]: the “effect on the aqueous solubility of olopatadine” value is listed as “increased the aqueous solubility of olopatadine in a linear concentration dependent manner” and the “ratio of solubility enhancement” value is reported as “about two molecules of the Compounds to one olopatadine molecule”.

For the compound `COc1ccc2c(Nc3c(Cl)cncc3Cl)cc(=O)[nH]c2c1OCCCCCCN1CCOCC1` [Compound 2, 4-(3,5-Dichloropyridin-4-ylamino)-7-methoxy-8-(6-morpholinohexyloxy)quinolin-2(1H)-one], the “effect on the aqueous solubility of olopatadine” value is recorded as “increased the aqueous solubility of olopatadine in a linear concentration dependent manner” and the “ratio of solubility enhancement” value is given as “about two molecules of the Compounds to one olopatadine molecule”. The “solubility of the PDE4 inhibitor in the formulation” value (pH 7.4) is “not sufficiently soluble”.

The values above are taken from patent publication US20140107121A1, “OLOPATADINE COMPOSITIONS AND USES THEREOF” (Alcon Research, Ltd., priority 2009, published 2014).
